Results from patent US11033531B2, “Use of carbamate compound for preventing, alleviating, or treating tremors or tremor syndrome” (SK BIOPHARMACEUTICALS CO., LTD., priority 2016, dated 2021).
Marks after values point to notes of the source that are not given here.

Test system: oxotremorine-induced tremor in rats
Assay: Oxotremorine-induced tremor in rats
Format: in vivo, rat
Conditions: for Number of tremor behaviors: male SD rats, behaviors of at least 0.5 s in 2,048 s, mean±SEM
Source text: As a model for assessing the potential efficacy of therapeutic agents that can effectively treat essential tremor and other tremor syndromes, oxotremorine-induced tremor in rats was used [B Cox, D Potkonjak, Effects of drugs on tremor and increase in brain acetylcholine produced by oxotremorine in the rat, Br. J. Pharmac., 1970, 38, 171-180].
Male SD rats (CrjBgi:CD(SD)IGS) were purchased from Orient Bio, Inc. of Korea, and placed in a wire mesh cage under conditions of ambient temperature of 20 to 24° C., 55 to 75% relative humidity, an automatically controlled light-and-darkness cycle of 12 hours and free access to feed (purchased from Agri Brands Purina Korea, Inc.) and water. The rats were housed and maintained in accordance with the Laboratory Animal Care Standards of the Institutional Animal Care and Use Committee (IACUC). After about one week of stabilization, rats weighing 200 to 240 g were used in the experiment. The rats to be used for the experiment were fasted by removing the feed 16 hours before the experiment, and placed in a tremor measurement device (Tremor Monitor™, San Diego Instruments, CA) 3 hours before the experiment and adapted for 10 minutes.
The test compound was prepared by dissolving it in 30% polyethylene glycol 400 (purchased from Sigma) used as a vehicle 30-45 minutes before each experiment. The vehicle and the test compound (3, 10 and 30 mg/kg dose) were administered into the oral cavity, respectively, in a volume of 4 ml per 1 kg body weight of the rat. After 60 minutes, oxotremorine (oxotremorine sesquifumarate salt, 1-(4-[1-Pyrrolidinyl]-2-butynyl)-2-pyrrolidinone sesquifumarate; purchased from Sigma) dissolved in saline and prepared in a volume of […] or a saline were subcutaneously injected into the back of the rat neck in a volume of 2 ml per 1 kg body weight of the rat. Oxotremorine-administered rats were immediately placed in a tremor measurement device (filter frequency 12 Hz, band-width 6 Hz, filter number 2), and the number of tremor behaviors that progressed for at least 0.5 seconds in 2,048 seconds were automatically measured and recorded. The number of rats per group was 16.
All data were expressed as mean±SEM. The number of oxotremorine-induced tremor behaviors in the group treated with the test compound was expressed as % inhibition compared to the vehicle group. Statistical analysis of the number of tremor behaviors between groups was performed using one-way ANOVA (one-way analysis of variance) and Dunnett's multiple comparison test by using the GraphPad Prism ver. 4.0 program. The mean number of tremor behaviors in the vehicle/oxotremorine group was observed as 29.8±8.1, and the mean number of tremor behaviors in the vehicle/saline group was observed as 9.2±2.5.

NC(=O)O[C@@H](Cn1ncnn1)c1ccccc1Cl [Test compound]
ED50 (Rattus norvegicus, po, rats, inhibition of oxotremorine-induced tremor behaviors, read-out: Calculated Median Effective Dose (ED50)): 1.67 mg/kg | inhibition at 3 mg/kg (Rattus norvegicus, po, 3 mg/kg p.o., rats, vs vehicle/oxotremorine group, corrected for vehicle/saline group, read-out: Inhibition rate compared to negative group): 50.3% | inhibition at 10 mg/kg (Rattus norvegicus, po, 10 mg/kg p.o., rats, vs vehicle/oxotremorine group, corrected for vehicle/saline group, read-out: Inhibition rate compared to negative group): 78.7% | inhibition at 30 mg/kg (Rattus norvegicus, po, 30 mg/kg p.o., rats, vs vehicle/oxotremorine group, corrected for vehicle/saline group, read-out: Inhibition rate compared to negative group): 130% | Number of tremor behaviors (3 mg/kg p.o. 60 min before oxotremorine s.c.): 19.4 ± 3.7 | Number of tremor behaviors (10 mg/kg p.o. 60 min before oxotremorine s.c.): 13.6 ± 0.1^2) | Number of tremor behaviors (30 mg/kg p.o. 60 min before oxotremorine s.c.): 2.9 ± 0.5^1) | Pharmacological activity in the oxotremorine-induced tremor behavior model (rats, 3, 10 and 30 mg/kg p.o.): significant pharmacological activity
